Data as given in US20160145242A1, “PHENYLIMIDAZOLE DERIVATIVE, AND THERAPEUTIC MEDICINE OR PREVENTIVE MEDICINE FOR INFLAMMATORY DISEASE, ETC” (NIPPON SODA CO., LTD., priority 2013, published 2016).

Legend:
[1] = system: mouse model of retinal light disorders; assay: Retinal light disorder model test (ONL thickness); assay type: in vivo; details: BALB/cCr male mouse, 30 mg/kg oral 30 minutes before 2 hours white light, eyes taken after 4 days
Description: (Retinal Light Disorder Model Test)
The usefulness (improvement rate with respect to retinal light disorders) of the compound of the invention was evaluated using a mouse model of retinal light disorders, generally used as a model of retinal light disorders, (Investigative Ophthalmology & Visual Science, 2002; vol. 43; pp. 1162 to 1167). Here, the improvement rate with respect to the retinal light disorders was calculated based on the thickness of an outer nuclear layer (hereinafter, referred to as “ONL”), which is strongly interfered especially by light application among a retinal cell layers, in a tissue specimen of a perpendicular surface of an eyeball.
Moreover, in the present test, the ONL of a light application group to which only a base was administered was degraded to 30% to 50% of a normal light group.
A test compound was dissolved or suspended in a solvent (1% (w/v) methyl cellulose aqueous solution) and then an administration liquid was prepared so that the test compound to be 30 mg/kg body weight. The dose was set to 10 ml/kg body weight.
A 5-week-old BALB/cCr-based male mouse (weight of approximately 20 g) was bred in a dark place for 48 hours. Subsequently, the test compound administration liquid was orally administered (30 mg/kg). After 30 minutes, […] of white light was continuously applied to the mouse for 2 hours. Next, the mouse was bred in a breeding room with 50 lux of light for 4 days.
An anesthetic (secobarbital sodium) was intraperitoneally administered to anesthetize the mouse and then the mouse was exsanguinated to die. The top portion of the right eyeball was marked with a thread and the eyeball was extracted. […]
The ONL thickness in the tissue specimen was measured for every 200 μm between the optic nerve papilla to where upwardly spaced by 1 mm from the optic nerve papilla using Lumina Vision. The area (AUC) from the optic nerve papilla to where upwardly spaced by 1 mm from the optic papilla in the graph was calculated as an ONL area. […]

CYP2D6 = target: T1, CYP2D6 (Homo sapiens, UniProt P10635); assay: Cytochrome P450 inhibitory action, CYP2D6 in human liver microsomes; assay type: in vitro ADME; details: substrate dextromethorphan
T1 construct: Using human liver microsomes pooled as an enzyme source; from tissue; host or cells: pooled human liver microsomes
Description: An inhibitory action of the compound of the present invention with respect to CYP2D6 (dextromethorphan was used as a substrate) and CYP3A4 (midazolam and testosterone were used as substrates) which are isozymes of cytochrome P450 (hereinafter, referred to as “CYP”) serving as a major drug-metabolizing enzyme was examined using human liver microsomes.
Using human liver microsomes pooled as an enzyme source, 1.3 mM NADP as a coenzyme, 3.3 mM D-glucose-6-phosphate, and 0.4 U/mL D-glucose-6-phosphate dehydrogenase, the corresponding substrate ([…] dextromethorphan for CYP2D6, 5 μM midazolam or 50 µM testosterone for CYP3A4) and the compound of the present invention were added such that the final concentration became 0.1, 1, 10 μM and then incubated at 37° C. for 10 minutes. The inhibition rate (%) of the compound of the present invention in each concentration was calculated by quantifying metabolites (CYP2D6; dextrorphan, CYP3A4; 1-hydroxymidazolam or 6β hydroxytestosterone) using HPLC-MS/MS and setting the value of the activity of an enzyme when drug was not incorporated therein as 100%. […]

[2] = target: T2, human platelet-derived thromboxane synthase (Homo sapiens, UniProt P24557); assay: Thromboxane synthase activity inhibitory action; assay type: biochemical; details: read-out: thromboxane synthase activity inhibition rate
T2 construct: host or cells: human recombinant cells (so in the source); platelets
T2 sequence (P24557 1-533): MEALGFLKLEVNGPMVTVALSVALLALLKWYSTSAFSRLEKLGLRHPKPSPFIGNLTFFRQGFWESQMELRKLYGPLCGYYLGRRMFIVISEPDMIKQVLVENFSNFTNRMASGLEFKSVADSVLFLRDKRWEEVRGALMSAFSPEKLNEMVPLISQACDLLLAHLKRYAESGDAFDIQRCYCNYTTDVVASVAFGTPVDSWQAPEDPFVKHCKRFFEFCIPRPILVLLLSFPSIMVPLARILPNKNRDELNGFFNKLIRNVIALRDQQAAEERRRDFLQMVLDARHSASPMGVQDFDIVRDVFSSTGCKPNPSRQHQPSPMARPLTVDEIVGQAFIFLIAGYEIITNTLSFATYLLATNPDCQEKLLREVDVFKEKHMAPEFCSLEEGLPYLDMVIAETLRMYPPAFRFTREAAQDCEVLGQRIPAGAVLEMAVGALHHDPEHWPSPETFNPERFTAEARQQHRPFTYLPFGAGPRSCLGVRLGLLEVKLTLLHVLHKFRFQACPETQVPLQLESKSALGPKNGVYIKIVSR
Description: The inhibitory action of the compound according to the present invention with respect to the activity of the present enzyme was examined using human platelet-derived thromboxane synthase.
Thromboxane synthase of human recombinant cells was reacted with 2.10 μM of prostaglandin H2 and the amount of thromboxane B2 which was a reaction product was measured by an enzyme-linked immunosorbent assay. 3 μM of the compound according to the present invention dissolved in dimethyl sulfoxide was added to the reaction system and the inhibition rate of thromboxane B2 generation (thromboxane synthase activity inhibition rate) was measured.

T1 sequence (P10635 whole entry): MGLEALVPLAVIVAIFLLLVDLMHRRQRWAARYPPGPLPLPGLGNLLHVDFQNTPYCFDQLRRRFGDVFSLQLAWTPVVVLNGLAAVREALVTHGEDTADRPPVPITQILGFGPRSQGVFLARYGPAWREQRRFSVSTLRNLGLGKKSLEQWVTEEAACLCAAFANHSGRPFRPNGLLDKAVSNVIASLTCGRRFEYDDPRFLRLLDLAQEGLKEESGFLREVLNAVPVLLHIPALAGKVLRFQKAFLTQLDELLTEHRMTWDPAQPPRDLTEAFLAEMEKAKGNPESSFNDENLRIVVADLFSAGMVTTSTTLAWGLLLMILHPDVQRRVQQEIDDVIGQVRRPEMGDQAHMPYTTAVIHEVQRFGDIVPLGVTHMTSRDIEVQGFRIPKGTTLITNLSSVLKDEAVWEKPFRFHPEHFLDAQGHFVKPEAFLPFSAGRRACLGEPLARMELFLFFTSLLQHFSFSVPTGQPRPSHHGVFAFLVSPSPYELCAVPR

## CC(=O)N1CCN(c2ccc(N)c(-n3ccnc3)c2)CC1 [Compound 1-1, 4-acetyl-1-(4-amino-3-imidazole-1-yl-phenyl)piperazine]
[1]
  ONL thickness improvement rate: 100.6%
CYP2D6; pooled human liver microsomes, probe dextromethorphan (printed 5 M), 10 μM, read-out: inhibition rate in the shown concentration
  inhibition at 10 min, 10 µM: 36%
CYP2D6
  IC50: > 10 µM
[2]
  inhibition at 3 µM: 32%
